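These data come from cells grown in 96-well plates and exposed to compound for 48 hours at five concentrations. At the GI50, growth is halved. The concentration for full growth arrest is given as TGI.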 Where a SMILES comes first, the peptide text is derived from it. [ ]: non-standard residue; d: D form. pGlu = O=C1CC[CH](C(=O)O)N1
Legend:
Assay in all cases: NCI anticancer screen, dose series, 48 h
[1] = system: K-562 leukemia
[2] = system: LOX IMVI melanoma
[3] = system: PC-3 prostate
[4] = system: SF-539 CNS
[5] = system: M14 melanoma
[6] = system: MDA-MB-435
[7] = system: SNB-75 CNS
[8] = system: HCT-15 colon
[9] = system: HCC-2998 colon
[10] = system: SK-OV-3 ovarian

| Structure (SMILES) | TGI [1] | TGI [2] | TGI [3] | TGI [4] | TGI [5] | TGI [6] | TGI [7] | TGI [8] | TGI [9] | TGI [10] | GI50 [2] | GI50 [3] | GI50 [4] | GI50 [5] | GI50 [6] | GI50 [7] | GI50 [8] | GI50 [9] | GI50 [10] | GI50 [1] |
| --- | --- | --- | --- | --- | --- | --- | --- | --- | --- | --- | --- | --- | --- | --- | --- | --- | --- | --- | --- | --- |
| CSC(=Nc1nnc(-c2ccc([N+](=O)[O-])cc2)s1)SC | > 100 µM | > 83.3 µM | > 100 µM | 44.5 µM | > 100 µM | > 100 µM | 33.6 µM | > 100 µM | > 100 µM | 62.4 µM |  |  |  |  |  |  |  |  |  |  |
| COc1ccc(-c2cc3c(c4cc(OC)ccc24)C(=O)OC3=O)cc1 | > 100 µM | > 100 µM | > 100 µM |  | > 100 µM | > 100 µM | > 100 µM | > 100 µM | > 100 µM | > 100 µM |  |  |  |  |  |  |  |  |  |  |
| CCN(Cc1cc(Nc2nc(C)cn3c(-c4cn[nH]c4)cnc23)sn1)C(C)(C)CO |  | 0.199 µM | 9.66 µM | 0.118 µM | 2.84 µM | 1.31 µM | 0.0365 µM | 11.4 µM | 4.56 µM | 3.38 µM | < 0.0125 µM | 0.0219 µM | 0.0179 µM | 0.0421 µM | 0.0826 µM | 0.0107 µM | 0.0746 µM | 0.0741 µM | 0.0241 µM |  |
| COc1ccc2[nH]cc(-c3ccc(-c4c[nH]c5ccc(OC)cc45)s3)c2c1 | 7.3 µM | 5 µM | 9.77 µM | 10.7 µM | 18.4 µM | > 41.4 µM | 19.5 µM | 8.72 µM | 5.13 µM | 39.8 µM | 2.2 µM | 3.08 µM | 3.41 µM | 6.36 µM | 8.32 µM | 7.12 µM | 2.73 µM | 2.4 µM | 14.7 µM | 2.54 µM |
| CCNC(=O)C1CCCN1C(=O)C(CCCN=C(N)N)NC(=O)C(CC(C)C)NC(=O)C(CC(C)C)NC(=O)C(Cc1ccc(O)cc1)NC(=O)C(CO)NC(=O)C(Cc1c[nH]c2ccccc12)NC(=O)C(Cc1cnc[nH]1)NC(=O)C1CCC(=O)N1 (stereo not given) ([pGlu]HWSYLLRP-NHEt; configuration not given here) | > 100 µM | > 100 µM | > 100 µM | > 100 µM | > 100 µM | > 100 µM | > 100 µM | > 100 µM | > 100 µM | > 100 µM | > 100 µM | > 100 µM | > 100 µM | > 100 µM | > 100 µM | > 100 µM | > 100 µM | > 100 µM | > 100 µM | > 100 µM |
| C/C=C(\C)C(=O)NC1=CC[C@@]2(C)C(=CCC3C2CC[C@@]2(C)C3CC[C@@H]2C(C)N(C)C)C1=O (stereo not given in full) | 2.86 µM | 3.58 µM | 17.7 µM | 3.22 µM | 3.44 µM | 7.08 µM | 28.4 µM | 4.65 µM | 15.6 µM | 29.8 µM | 1.63 µM | 2.5 µM | 1.62 µM | 1.81 µM | 2.35 µM | 5.22 µM | 1.54 µM | 4.01 µM | 11.6 µM | 0.451 µM |
| CN(Cc1ccccc1)C(=NC#N)N(Cc1ccccc1)Cc1ccccc1 | > 100 µM | 35 µM | 39.5 µM | 39.7 µM | 47.7 µM | 33.7 µM | 82.2 µM | 71 µM | > 87.1 µM | > 90.3 µM |  |  |  |  |  |  |  |  |  |  |
| Cc1c[n+](=O)c2ccccc2n1[O-] | > 100 µM | > 100 µM | > 100 µM | > 100 µM | > 100 µM | > 100 µM | > 100 µM | > 100 µM |  | > 100 µM |  |  |  |  |  |  |  |  |  |  |
| CN(CCO)CC[C@H](CSc1ccccc1)Nc1ccc(S(=O)(=O)NC(=O)c2ccc(N3CCC([C@@H](O)c4ccccc4-c4ccc(Cl)cc4)CC3)cc2)cc1S(=O)(=O)C(F)(F)F | > 100 µM | 2.97 µM | 9.05 µM | 8 µM | 20.2 µM | 6.51 µM | 34.2 µM | > 100 µM | 1.69 µM | 20.7 µM | 1.43 µM | 2.51 µM | 2.67 µM | 3.51 µM | 2.31 µM | 3.63 µM | > 100 µM | 0.286 µM | 4.98 µM | 3.4 µM |
| CC1(C)C2CCC13C(=O)C1OC3(C2)C2C(=O)c3cc4ccccc4cc3C(=O)C12 (stereo not given) | 33.7 µM |  | 27.8 µM | 72 µM | > 100 µM | > 100 µM | > 100 µM | 68.8 µM | > 100 µM | 67.4 µM |  | 3.85 µM | 40.1 µM | 10.7 µM | 8.58 µM | 54.5 µM | 9.28 µM | 8.53 µM | 12.2 µM | 4.92 µM |
| ClCc1cccc2c(CCl)cccc12 | > 100 µM | 4.3 µM | 19.7 µM | 11.7 µM | 23.4 µM | 18.7 µM | 14.6 µM | 30.1 µM | 8.3 µM | > 100 µM | 1.39 µM | 4.21 µM | 2.86 µM | 5.95 µM | 4.28 µM | 2.1 µM | 5.92 µM | 2.48 µM | 21.2 µM | 10.5 µM |
| N#CC1(C#N)C2(c3ccccc3)OC(c3ccccc3)(c3cc4ccccc4cc32)C1(C#N)C#N | 8.18 µM | 11.1 µM | 32.9 µM | 29.6 µM | 31.6 µM | 31.7 µM | 30.1 µM | 26.7 µM | 33.8 µM | 37.4 µM |  |  |  |  |  |  |  |  |  |  |
| O=C(c1ccccc1)c1ccccc1-c1ccccc1 |  | > 100 µM | > 100 µM | 15.3 µM | 13 µM | 7.87 µM | 19.8 µM | > 100 µM | 34.5 µM | 25.2 µM | 5.96 µM | 3.67 µM | 3.06 µM | 1.75 µM | 0.325 µM | 2.11 µM | 2.74 µM | 6.14 µM | 3.54 µM |  |
| Clc1nc(Cl)c2ncn(CC3(Cn4cnc5c(Cl)nc(Cl)nc54)COC3)c2n1 |  | 0.349 µM | 0.348 µM | 2.55 µM | 0.753 µM | 0.613 µM | 0.395 µM | 0.361 µM | 0.389 µM | 2.98 µM | 0.18 µM | 0.188 µM | 1.24 µM | 0.274 µM | 0.234 µM | 0.201 µM | 0.178 µM | 0.221 µM | 1.61 µM |  |

From PubChem BioAssay (NCI)
